Reference: patent US4952592A, “1,4-dihydro 2,6-dimethyl 4-(2,3-methylenedioxyphenyl) 3-alkoxy carbonyl 5-[2-(substituted amino)ethoxy]carbonyl pyridine” (Instituto de Investigacion Y Desarrollo Quimicobiologico …, priority 1987, dated 1990)
One block for each molecule: values may come before it.

Tests used:
rat aorta = experiment: Inhibitory effects with respect to contractions of the rat aorta induced by 80 mM KCl; type: cell-based, WISTAR rats; conditions: isolated rat aorta
Method: The compounds of the present invention were tested for their calcium-inhibitory properties by standard methods applicable "in vitro".
Inhibitory effects with respect to contractions of the rat aorta induced by 80 mM KCl.
The aorta of WISTAR rats (220-250 g), sacrificed by decapitation, are removed and placed in a 20-ml organ bath at a temperature of 34° C., containing a KREBS solution composed as follows (in mmol per liter): NaCl, 137; KCl, 2.7; MgCl2.6H2 O, 1.04; CaCl2.2H2 O, 0.8; Na2 HPO4.H2 O, 0.42; NaHCO3, 11.9; glucose, 5. This solution is oxygenated with a mixture of 95% of O2 and 5% of CO2 (Furchgott and Bhadakron, 1956).
After a 45-minute stabilization period under a tension of 2 g, the maximal contractions of the artery are induced by adding KCl to the bath until a final concentration of 80 mmol/liter is attained. After the contractions have stabilized, the compounds of the invention, or OXODIPINE as control substance, are added, leaving a period of at least 10 minutes for stabilizing the relaxation.
The compounds of the present invention are dissolved in ethanol to give concentrated solutions containing approximately 1 mg/ml, from which the dilutions used above, from 10^-13 to 10^-7 M, are obtained by adding saline solution. The 50% inhibitory concentrations (IC50) are determined by analysis of the straight regression line.

in vivo = conditions: mouse, ip, mice, i.p., mortality in 7 days, read-out: intraperitoneal LD50
Method: The acute toxicity of a few compounds of the invention was determined in mice according to the method of […] and WILCOXON. Groups of 5 mice weighing 20-25 g were treated with increasing i.p. doses of the test compounds. The mortality was recorded in the 7 days following the treatment, and the LD50 calculated on this basis.

[1] = system: conscious renal hypertensive rats; experiment: antihypertensive activity on conscious renal hypertensive rats (systolic blood pressure, tail sleeve); type: in vivo, rat; conditions: i.p.; for decrease of the original high pressure: 1 mg/kg
Method: (2)1- antihypertensive activity:
A few compounds according to the invention were tested for their antihypertensive activity on conscious renal hypertensive rats. The systolic blood pressure was measured on the tail of unanaesthetized rats by means of an inflatable sleeve and an L.H.5 000 digital pressure gauge (Letica Instruments, Barcelona, Spain). The measurements were carried out before the i.p. administration of the test substance, and then 30 minutes, 1, 2, 4 and 5 hours after administration. The animals were maintained in preheated plastic cylinders during the measurements. Rats having a blood pressure of less than 160 mmHg were eliminated from the experiment.
Each compound was administered in 5% strength suspension (CMC) by i.p. injection.

coronary vessels = experiment: Vascular activity in anaesthetized dogs: regional blood flows and haemodynamics with coronary artery occlusion; type: in vivo; conditions: i.v.
Method: The beneficial effects on the oxygen supply/consumption balance may be accompanied by a modification of the blood distribution within the wall, which will be better irrigated, and by an increase in the blood flow in the collateral vessels during an acute occlusion of the coronary artery. The effects of the compound of Example 11, at doses of 10 and less than 10 μg/kg i.v., were explored in anaesthetized dogs in order to determine: the regional (endocardium, epicardium) myocardial blood flows in the ischaemic and non-ischaemic zones, the ratio between the endo- and epicardial flows and the ratio of the flows in the ischaemic/nonischaemic zone, the regional blood flows in other areas (spleen, pancreas, kidney, liver, stomach, intestines, muscle, skin) in order to define the selectivity of action of the compound. The studies were carried out on 6 adult dogs, according to the technique of […] and […]. Pharmacol. 1985 - 16 - 59 - 74 and J. Pharmacol. Exp. Ther. 1982, 221, 740-747). In addition, the haemodynamic parameters (heart rate, arterial blood pressure, left ventricular pressure, cardiac flow, total peripheral resistance, systolic ejection volume, cardiac work, contractility index) were monitored at regular times, before and after 3 successive short periods (12 minutes) of total occlusion of the coronary artery, the injection of radioactive microspheres enabling the regional flows to be evaluated. After the first period of ischaemia, the parameters were allowed to return to normal before the test compound was injected, the second occlusion was then performed and this procedure was repeated, the reversibility of the parameters being complete approximately 45 minutes after each occlusion. The test compound was administered in aqueous-alcoholic solution (0.1 mg/ml) on the basis of 0.1 ml/kg i.v.

[2] = 3 mg/kg/min and above, in words; cited from earlier work

SMILES: CNCCOC(=O)C1=C(C)NC(C)=C(C(=O)OC)C1c1cccc2c1OCO2 (centres unmarked) [Example 1, 3-Methyl 5-[2-(N-methylamino)ethyl]1,4-dihydro-2,6-dimethyl-4-(2,3-methylenedioxyphenyl)-3,5-pyridinedicarboxylate]
- IC50 (rat aorta): 1920 nM

SMILES: COC(=O)C1=C(C)NC(C)=C(C(=O)OCCN(C)Cc2ccccn2)C1c1cccc2c1OCO2 (centres unmarked) [Example 4, 3 -Methyl 5-{2-[N-methyl-N-(2-picolyl)amino]ethyl}1,4-dihydro-2,6-dimethyl-4-(2,3-methylenedioxyphenyl)-3,5-pyridinedicarboxylate]
- IC50 (rat aorta): 81.1 nM

SMILES: CCOC(=O)C1=C(C)NC(C)=C(C(=O)OCCN(C)Cc2ccc(F)cc2)C1c1cccc2c1OCO2 (centres unmarked) [Example 8, 3-Ethyl 5-{2-[N-methyl-N-(4-fluorobenzyl)amino]ethyl}1,4-dihydro-2,6-dimethyl-4-(2,3-methylenedioxyphenyl)-3,5-pyridinedicarboxylate]
- IC50 (rat aorta): 0.04 nM
- LD50 at 168 h (in vivo): 70 to 80 mg/kg
- decrease of the original high pressure [1]: 23%

SMILES: COC(=O)C1=C(C)NC(C)=C(C(=O)OCCN(C)Cc2cccs2)C1c1cccc2c1OCO2 (centres unmarked) [Example 9, 3-Methyl 5-{2-[N-methyl-N-(2-thienylmethyl)amino]ethyl}1,4-dihydro-2,6-dimethyl-4-(2,3-methylenedioxyphenyl)-3,5-pyridinedicarboxylate]
- IC50 (rat aorta): 13 nM

SMILES: CCOC(=O)C1=C(C)NC(C)=C(C(=O)OCCN(C)Cc2cccs2)C1c1cccc2c1OCO2 (centres unmarked) [Example 10, 3-Ethyl 5-{2-[N-methyl-N-(2-thienylmethyl)amino]ethyl}1,4-dihydro-2,6-dimethyl-4-(2,3-methylenedioxyphenyl)-3,5-pyridinedicarboxylate]
- IC50 (rat aorta): 0.904 nM

SMILES: CC1=C(C(=O)OCCN(C)Cc2ccc(F)cc2)C(c2cccc3c2OCO3)C(C(=O)OC(C)C)=C(C)N1 (centres unmarked) [Example 11, 3-Isopropyl 5-{2-[N-methyl-N-(4-fluorobenzyl)amino]ethyl}1,4-dihydro-2,6-dimethyl-4-(2,3-methylenedioxyphenyl)3,5-pyridinedicarboxylate]
- arterial blood pressure change (coronary vessels): -13%
- cardiac flow change (coronary vessels): +9%
- heart rate change (coronary vessels): -9%
- systolic ejection volume change (coronary vessels): +18%
- total peripheral resistance reduction (coronary vessels): 20%
- epicardial flow increase (coronary vessels; ischaemic zones): ≥ 20%
- endo/epi ratio change (coronary vessels; ischaemic zones, p<0.05): -21%
- transmural flow increase (coronary vessels; non-ischaemic zones): 42%
- endo/epi ratio change (coronary vessels; non-ischaemic zones, p<0.001): -22%
- epicardial flow change (coronary vessels; non-ischaemic zones, p<0.001): +62%
- coronary vascular resistance change (coronary vessels; non-ischaemic zones, p<0.05): -38%
- endocardial flow change (coronary vessels; non-ischaemic zones, p<0.05): +26%
- LD50 at 168 h (in vivo): 30 to 40 mg/kg
- decrease of the original high pressure [1]: 33%
- duration of antihypertensive effects [1]: more than 6 hours

SMILES: CC1=C(C(=O)OCCN(C)Cc2cccs2)C(c2cccc3c2OCO3)C(C(=O)OC(C)C)=C(C)N1 (centres unmarked) [Example 12, 3-Isopropyl 5-{2-[N-methyl-N-(2-thienylmethyl)amino]ethyl}1,4-dihydro-2,6-dimethyl-4-(2,3-methylenedioxyphenyl)-3,5-pyridinedicarboxylate]
- IC50 (rat aorta): 22.5 nM

SMILES: COC(=O)C1=C(C)NC(C)=C(C(=O)OC)C1c1ccccc1[N+](=O)[O-] [NIFEDIPINE]
- heart rate [2]: increased
- myocardial regional flows [2]: decreases the myocardial regional flows
- perfusion pressure [2]: strongly reduced

Continued, values first:

- IC50 (rat aorta): 558 nM
SMILES: COC(=O)C1=C(C)NC(C)=C(C(=O)OCCN(C)C=O)C1c1cccc2c1OCO2 (centres unmarked) [Example 2, 3-Methyl 5-[2-(N-formyl-N-methylamino)ethyl]1,4-dihydro-2,6-dimethyl-4-(2,3-methylenedioxyphenyl)-3,5-pyridinedicarboxylate]

- IC50 (rat aorta): 52.8 nM
SMILES: COC(=O)C1=C(C)NC(C)=C(C(=O)OCCN(C=O)Cc2ccccc2)C1c1cccc2c1OCO2 (centres unmarked) [Example 3, 3-Methyl 5-[2-(N-formyl-N-benzylamino)ethyl]1,4-dihydro-2,6-dimethyl-4-(2,3-methylenedioxyphenyl)-3,5-pyridinedicarboxylate]

- IC50 (rat aorta): 245 nM
SMILES: COC(=O)C1=C(C)NC(C)=C(C(=O)OCCN(C)Cc2ccncc2)C1c1cccc2c1OCO2 (centres unmarked) [Example 5, 3-Methyl 5{2-[N-methyl-N-(4-picolyl)amino]ethyl}1,4-dihydro-2,6-dimethyl-4-(2,3-methylenedioxyphenyl)-3,5-pyridinedicarboxylate]

- IC50 (rat aorta): 9 nM
SMILES: COC(=O)C1=C(C)NC(C)=C(C(=O)OCCN(C)Cc2cccnc2)C1c1cccc2c1OCO2 (centres unmarked) [Example 6, 3-Methyl 5-{2-[N-methyl-N-(3-picolyl)amino]ethyl}1,4-dihydro-2,6-dimethyl-4-(2,3-methylenedioxyphenyl)-3,5-pyridinedicarboxylate]

- IC50 (rat aorta): 2.75 nM
SMILES: COC(=O)C1=C(C)NC(C)=C(C(=O)OCCN(C)Cc2ccc(F)cc2)C1c1cccc2c1OCO2 (centres unmarked) [Example 7, 3-Methyl 5-{2-[N-methyl-N-(4-fluorobenzyl)amino]ethyl}1,4-dihydro-2,6-dimethyl-4-(2,3-methylenedioxyphenyl)-3,5-pyridinedicarboxylate]

- IC50 (rat aorta): 3.1 nM
SMILES: CCOC(=O)C1=C(C)NC(C)=C(C(=O)OC)C1c1cccc2c1OCO2 (centres unmarked) [OXODIPINE, reference compound]
